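Cells were grown in 96-well plates and exposed to each compound for 48 hours at five concentrations; endpoints were interpolated linearly between bracketing concentrations, or set to the highest concentration if not reached. TGI denotes the concentration required for complete inhibition of growth.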
Columns and labels:
Experiment in all cases: NCI anticancer screen, dose series, 48 h
[1] = test system: CCRF-CEM leukemia
[2] = test system: EKVX NSCLC
[3] = test system: HCT-116 colon
[4] = test system: HL-60(TB) leukemia
[5] = test system: HT29 colon
[6] = test system: LOX IMVI melanoma
[7] = test system: MALME-3M melanoma
[8] = test system: OVCAR-5 ovarian
[9] = test system: OVCAR-8 ovarian
[10] = test system: RXF 393 renal
[11] = test system: SF-268 CNS
[12] = test system: SF-295 CNS
[13] = test system: SK-MEL-28 melanoma
[14] = test system: SK-MEL-5 melanoma
[15] = test system: SK-OV-3 ovarian
[16] = test system: SNB-75 CNS
[17] = test system: TK-10 renal
[18] = test system: U251 CNS
[19] = test system: UACC-62 melanoma
[20] = test system: UO-31 renal

Measured: TGI

COc1ccc(-c2c(C(C)=O)c(C)n(C3OC(CO)C(O)C(O)C3O)c(=S)c2C#N)cc1 (stereo not given)
> 100 µM: [1] | [2] | [3] | [4] | [5] | [6] | [7] | [8] | [9] | [10] | [11] | [12] | [13] | [14] | [15] | [16] | [17] | [18] | [19] | [20]

NC(CO)c1ccccc1 (stereo not given)
> 100 µM: [1] | [2] | [3] | [4] | [5] | [6] | [7] | [8] | [9] | [10] | [11] | [12] | [13] | [14] | [15] | [16] | [17] | [18] | [19] | [20]
